Laboratory results: article PMC3001460, “FYVE-Dependent Endosomal Targeting of an Arrestin-Related Protein in Amoeba” (PLoS ONE, 2010)

Key:
[1] = molecular target: T1, MBP-FYVE (AdcA FYVE domain) (Dictyostelium discoideum, UniProt Q54CH1); assay: intrinsic tryptophan fluorescence titration; type: binding; conditions: read-out: affinity
T1 sequence (Q54CH1 458-530): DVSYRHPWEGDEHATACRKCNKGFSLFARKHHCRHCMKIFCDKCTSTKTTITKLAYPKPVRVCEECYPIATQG

ArfA-His6 = molecular target: T2, ArfA-His6 (Dictyostelium discoideum, UniProt O00909 1-182); assay: pull-down; GST-AdcAC on glutathione Sepharose beads, ArfA-His6 preincubated 1 hr at 4°C with 100 µM GDPβS or no extra nucleotide, then overnight at 4°C; 20 mM Tris pH 7.5, 25 mM NaCl, 2 mM DTT, 2 mM EDTA, 2.5 mM MgCl2, 1 mM ATP, 0.2% Triton X-100; Western blot with anti-Arf antibody; conditions: both partners purified
T2 construct: Preincubated with 100 µM GDPβS, 100 µM GTPγS or no extra nucleotide before the pull-down; The nucleotide state is told by the assay; also called Dd-ArfA; ADP-ribosylation factor ArfA; source: E. coli BL21(DE3), purified (Ni-NTA agarose); not shown: His6, C-terminal, kept
T2 sequence (O00909 whole entry): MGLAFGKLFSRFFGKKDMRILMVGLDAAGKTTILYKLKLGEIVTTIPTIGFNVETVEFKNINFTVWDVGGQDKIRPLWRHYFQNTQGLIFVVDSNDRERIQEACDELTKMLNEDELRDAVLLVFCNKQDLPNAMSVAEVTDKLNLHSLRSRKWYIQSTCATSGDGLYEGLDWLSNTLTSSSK

Row | Molecule | Kd [1] | binding result (ArfA-His6)
1 | O=P(O)(O)O[C@@H]1[C@H](O)[C@H](OP(=O)(O)O)[C@@H](O)[C@H](O)[C@H]1O [Ins(1,3)P2] | ~20 µM | 
2 | GST-AdcAC (C domain of the arrestin core of AdcA, amino acids 311 to 459, fused to GST) (domain or fragment, Dictyostelium discoideum, UniProt Q54CH1 311-459, looked up, AdcA (arrestin-domain containing protein A) of Dictyostelium discoideum, whole protein 580 amino acids; C domain of the arrestin core, amino acids 311 to 459, in pGEX-KG; also called GST-AdcC; C-terminal domain of the AdcA arrestin core; not shown: GST, N-terminal, kept) MLTKGKLHVKTWLNKNAYFPGETLVAKMKANNTSIKPTRKISLVVHHTMQLKTRLYHRCITNAIYKQQYDGFQPCFYGKRYLPFSIPVDLKPSSSLGKHITSSYLLELECDIPMAIDLSVTLPLTLFAPQFLYSTVPSQPPGTPLPPDV |  | binds
